Measurements: US7038106B1, “Detection of neural activity” (The University Court of the University of Glasgow, priority 1998, dated 2006)
Entries after “also recorded” stand apart in the source; their conditions may differ. Like-named read-outs stand apart in the source and are kept apart here.

Columns and labels:
[1] = tested on: mushroom bodies (Kenyon cells) of Drosophila adult brain; test: Aequorin luminometry of endogenous intracellular calcium oscillation in intact Drosophila brain (GAL4-aeq lines); format: cell-based; details: for EC50: Drosophila melanogaster, read-out: EC50 for reduction of oscillation amplitude; for Effect on oscillation amplitude and period/frequency: concentration not given
[2] = tested on: Honeybee KCs delayed rectifier-type current; details: cited from earlier work
[3] = tested on: Honeybee KCs calcium current; details: cited from earlier work

Molecule: Nc1ccncc1 [4-aminopyridine]
- Sensitivity of oscillation in Sh5 background relative to Sh+ control (less sensitive) [1]: 10 fold
- EC50 ([1]; dose-response curves from amplitudes measured before and after treatment, […]): ~30 µM
- Effect on oscillation frequency / period ([1]; concentration not stated or dose-dependent): dose-dependent reduction of oscillation period
- Effect on oscillation amplitude ([1]; concentration not stated or dose-dependent, […]): reduce oscillation amplitude in a dose-dependent manner

Molecule: [Co] [Cobalt]
- Effect on oscillation ([1]; 1–10 mM range): gradual dampening effect on oscillation

Molecule: O=C(O)CN(CCOCCOCCN(CC(=O)O)CC(=O)O)CC(=O)O [EGTA]
- Effect on oscillation ([1]; 1 mM, removal of external calcium): Oscillation ceases

Molecule: NCCCC(=O)O [GABA]
- Effect on oscillation amplitude and period ([1]; 1 mM): increases both amplitude and period
- Effect on oscillation amplitude and period/frequency [1]: increases both amplitude and period

Molecule: CN1CCCC1c1cccnc1 (stereo not shown) [Nicotine]
- Effect on oscillation [1]: complete abolition of oscillation

Molecule: C=C[C@H]1C[N@@]2CC[C@H]1C[C@@H]2[C@@H](O)c1ccnc2ccc(OC)cc12 [Quinidine]
- Effect on delayed rectifier-type current ([2]; 100 μM): blocked

Molecule: CC(=O)[O-].CC[N+](CC)(CC)CC [TEA, tetraethylammonium acetate]
- Effect on oscillation [1]: eliminate oscillations
- EC50 [1]: ~70 µM
- Sensitivity of delayed rectifier-type current [2]: only weakly sensitive

Molecule: Nc1c2c(nc3ccccc13)CCCC2 [Tacrine]
- EC50 ([1]; dose-response curves from amplitudes measured before and after treatment, 117Y-aeq adult brains): ~1 µM
- Effect on oscillation amplitude and period/frequency [1]: reduce both oscillation amplitude and frequency

Molecule: NC1=N[C@H](O)[C@H]2[C@H]3O[C@]4(O)O[C@@H]([C@@H](O)[C@@]2(N1)[C@@H]4O)[C@]3(O)CO [Tetrodotoxin]
- Effect on oscillation [1]: cessation of oscillation within a few cycles of application; also recorded: oscillation resumes in the form of a series of spaced bursts of very high relative amplitude

Molecule: COc1ccc(CCN(C)CCCC(C#N)(c2ccc(OC)c(OC)c2)C(C)C)cc1OC (stereo not shown) [Verapamil]
- Effect on calcium current [3]: affected

Molecule: CCCC(=O)Nc1ncnc2c1ncn2[C@@H]1O[C@@H]2COP(=O)(O)O[C@H]2[C@H]1OC(=O)CCC [dibutyryl cAMP]
- Effect on oscillation ([1]; 1 mM, cAMP pathway): ineffective

Molecule: Picrotoxin [Pierotoxin]
- Effect on oscillation amplitude and period/frequency [1]: opposite effects
